One assay concerns HMGB1. The assay is described as follows: HMGB1 quantitation in serum of septic mice (ELISA). The class given is in vivo, C57BL/6 mice. The note with it: peptide by tail vein 1 h after bacterial injection; serum ELISA at 12 h; n = 8. The text has this:
(§1) Wild-type C57 mice were intraperitoneally injected with MSI001 bacteria (6 × 10^6 CFU/g body weight) to reproduce a sepsis model. […] Normal saline (NS) was used as control. […] One hour after CLP modeling, the mice were intravenously injected with LL37 or VTK-LL37 peptide at a dosage of 0.2 nmol/g body weight. Equal volume of normal saline (NS) was used as control. […] The mice were intraperitoneally injected with MSI001 bacteria. One hour later, the mice were subjected to tail vein injection (TVI) with VTK-LL37 (VTK-LL37 group), LL37 (LL37 group) or an equivalent volume of NS (sepsis group). Wild-type mice without modeling were used as controls (control group). The blood bacteria were quantitated as colony forming units (CFU) 12 h after injection of bacteria. n = 8. *P < 0.05, compared to control; ^#P < 0.05, compared to sepsis group^; ΔP < 0.05, compared to LL37 group. Results are expressed as the median with range. d Suppression of VTK-LL37 on the production of HMGB1 in the blood of septic mice. […] Twelve hours after bacterial injection, HMGB1 in the serum was quantitated by ELISA. n = 8. *P < 0.05, compared to control; ^#P < 0.05, compared to sepsis group; ^ΔP < 0.05, compared to LL37 group^. Results are expressed as the mean ± SD. e, f Protective effect of VTK-LL37 against organ damage in mice subjected to bacterial injection. […]

The subject of assay [1] is liver, kidney, heart and lung. The assay is described as follows: Histopathological evaluation of organ injury in septic mice. It is filed as in vivo, C57BL/6 mice. The note with it: peptide i.v. 1 h after sepsis modeling; tissues at 12 h; HE staining, injury scores; n = 6.
From the text: as §1

The next assay has as its system MSI001-Amp^r bacteria. The assay is described as follows: Growth of ampicillin-resistant MSI001 bacteria. The following applies: 1×10^3 CFU/ml, peptide 1 μmol/L, 37°C, 3 hours, colony count, n=3. The class given is cell-based, Escherichia coli. The method, then: (§2) Pseudomonas aeruginosa (ATCC27853) was purchased from American Type Culture Collection (ATCC) and cultured in Luria Broth (LB) medium with shaking at 37 °C. For construction of ampicillin-resistant MSI001 strain (MSI001-Amp^r), the pET14b plasmid carrying Amp^r marker gene was introduced into the wild type MSI001 strain. The MSI001-Amp^r strain was cultured in LB medium supplemented with Ampicillin of 100 µg/ml at 37 °C.
(§3) Figure S4. Inhibitory effect of LL37 and VTK-LL37 fusion peptides on bacterial growth. a Effect of VTK-LL37 on the growth of Ampicillin resistant (Amp^r) MSI001 bacteria. The bacterial strain MSI001 was transfected with pET14b plasmid to produce an Ampicillin resistant (Amp^r) MSI001 strain. The VTK-LL37 or LL37 peptide was added to the cultured MSI001-Amp^r bacteria (1×10^3 CFU/ml) with a final concentration of 1 μmol/L. After incubation with the VTK-LL37 or LL37 peptides at 37°C for 3 hours, bacterial colonies were counted. b Effect of VTK-LL37 on the growth of Pseudomonas aeruginosa. The bacterial colonies of Pseudomonas aeruginosa were counted as above. […]

Assay [2] concerns Pseudomonas aeruginosa (ATCC27853). The assay is described as follows: Growth of Pseudomonas aeruginosa. The class given is cell-based. The following applies: peptide 1 μmol/L, 37°C, 3 hours, colony count, n=3. The method, then:
as §2, §3

On to “CVTKLGSLCVPGVGLLGDFFRKSKEKIGKEFKRIVQRIKDFLRNLVPRTES [VTK-LL37]”, for which the “production of HMGB1 in serum of septic mice” value with HMGB1 is given as “significantly suppressed the production of HMGB1 in the serum of septic mice, which was superior to LL37”. In addition, the sepsis-induced organ injury entry in assay [1] was “alleviated sepsis-induced injury to multiple organs, including the liver, lung, kidney and heart”. Besides, the “inhibitive effect on growth of ampicillin-resistant MSI001” value in the assay with MSI001-Amp^r bacteria is “more significant inhibitive effect on the bacterial growth of the ampicillin-resistant MSI001 bacteria in comparison with LL37”. Also, the “inhibitory effect on growth of Pseudomonas aeruginosa” value in assay [2] is listed as “showed inhibitory effect on the growth of Pseudomonas aeruginosa”.

(Values after publication PMC9309159, “Identification of heptapeptides targeting a lethal bacterial strain in septic mice through an integrative approach” (Signal Transduction and Targeted Therapy, 2022).)
